The subject of the assay is mouse. Kind of assay: mouse hot plate test (analgesic activity). It is filed as in vivo. Particulars: hot plate 52° C., 15 minutes after administration, latency to jump; for Analgesic Activity, Hot Plate Test ED50, mg./kg. subcutaneous: subcutaneous injection. The procedure: In this test, a mouse is placed inside an upright acrylic cylinder comprising, as its base, a hot plate surface which is maintained at 52° C. The mouse is given, orally or by subcutaneous injection, a predetermined amount of test compound dissolved or suspended in a suitable carrier, and, 15 minutes after administration of the test compound, the mouse is placed on the hot plate surface. The latency in seconds until the mouse jumps from the hot plate surface is measure. […] This must occur in a dose range which produces no motor incoordination or incapacitation. The following Table records the ED50 results obtained from this test.
In general terms: Thermal pain tests record how soon the animal reacts.

Counter-ions that a name gives are not always drawn. Where a SMILES comes first, the peptide text is derived from it. [ ]: non-standard residue; d: D form. NEtPhe(4-F) = CCN[C@@H](Cc1ccc(F)cc1)C(=O)O

As for `CCN(C(=O)CNC(=O)[C@@H](C)NC(=O)[C@@H](N)Cc1ccc(O)cc1)[C@@H](Cc1ccc(F)cc1)C(N)=O` [Example 1, L-Tyrosyl-D-alanyl-glycyl-L-(N-ethyl)-p-fluorophenylalanine Amide, Acetate Salt], the “Analgesic Activity, Hot Plate Test ED50, mg./kg. oral” value stood at 19 mg/kg and the “Analgesic Activity, Hot Plate Test ED50, mg./kg. subcutaneous” value (“Analgesic Activity … mg./kg. subcutaneous” below) was determined as 0.00018 mg/kg. Consider `CCN(C(=O)CNC(=O)[C@H](NC(=O)[C@@H](N)Cc1ccc(O)cc1)[C@H](C)O)[C@@H](Cc1ccc(F)cc1)C(N)=O` [Example 2, L-Tyrosyl-D-threonyl-glycyl-L-(N^α -ethyl)-p-fluorophenylalanine Amide, Acetate Salt] (H-Y[dT]G[NEtPhe(4-F)]-NH2), for which the “Analgesic Activity … mg./kg. subcutaneous” value amounted to 0.0121 mg/kg. Consider `CCN(C(=O)CNC(=O)[C@@H](C)NC(=O)[C@H](Cc1ccc(O)cc1)NC)[C@@H](Cc1ccc(F)cc1)C(N)=O` [Example 3, L-N^α -Methyl-tyrosyl-D-alanyl-glycyl-L-(N^α -Ethyl)-p-fluorophenylalanine Amide, Acetate Salt], for which the “Analgesic Activity, Hot Plate Test ED50, mg./kg. oral” value turned out to be 3.55 mg/kg and the “Analgesic Activity … mg./kg. subcutaneous” value came to 0.0117 mg/kg.

(Values after patent US4265808A, “Pharmacologically active peptides” (Eli Lilly and Company, priority 1979, dated 1981).)
